Measurements published in patent US10829520B2, “Beta-hairpin peptidomimetics” (POLYPHOR AG, priority 2015, dated 2020).
Where a SMILES comes first, the peptide text is derived from it. Bridges are numbered along the chain shown (N, C = ends). [ ]: non-standard residue; d: D form. Orn = NCCC[C@H](N)C(=O)O; Dab = NCC[C@H](N)C(=O)O; Sar = CNCC(=O)O

Key:
Assay type in all cases: cell-based
[1] = tested on: human red blood cells (hRBC); experiment: Hemolysis of human red blood cells; settings: red cells of human, 1 h, 100 μg/mL
Outline: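 Fresh human red blood cells are washed in PBS, then shaken with peptide (100 μg/mL) at 37° C. for 1 h, final erythrocyte density about 0.9×10^9 cells/mL. After centrifugation, diluted supernatants are read at 540 nm against buffer (0%) and Triton X-100 (100%) lysis controls.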

[2] = tested on: Escherichia coli 926415; settings: 926415
[3] = tested on: Acinetobacter baumannii DSM 30008; settings: DSM 30008
Outline: (§1)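 MIC in μg/mL; CLSI microdilution; cation-adjusted Mueller-Hinton II with Polysorbate 80 (0.002%); 10^6 CFU/mL; 35° C, 18-20 h.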

[4] = tested on: Klebsiella pneumoniae 968733; settings: 968733
[5] = tested on: Escherichia coli ATCC 25922; settings: ATCC 25922
Outline: as §1

[6] = tested on: Acinetobacter baumannii 872842; settings: 872842
[7] = tested on: Pseudomonas aeruginosa ATCC 27853; settings: ATCC 27853
Outline: as §1

[8] = tested on: Klebsiella pneumoniae SSI #3010; settings: SSI #3010
Outline: as §1

| SMILES | Hemolysis at 100 μg/mL [1] [%] | Escherichia coli 926415 MIC [2] [µg/mL] | Acinetobacter baumannii DSM 30008 MIC [3] [µg/mL] | Klebsiella pneumoniae 968733 MIC [4] [µg/mL] | Escherichia coli ATCC 25922 MIC [5] [µg/mL] | Acinetobacter baumannii 872842 MIC [6] [µg/mL] | Pseudomonas aeruginosa ATCC 27853 MIC [7] [µg/mL] | Klebsiella pneumoniae SSI #3010 MIC [8] [µg/mL] |
| --- | --- | --- | --- | --- | --- | --- | --- | --- |
| CC(C)C[C@@H]1NC(=O)[C@@H](CC(C)C)NC(=O)[C@H](CCN)NC(=O)[C@@H](NC(=O)[C@H](CCN)NC(=O)[C@H](CCN)NC(=O)[C@@H](NC(=O)[C@H](CCCN)NC(=O)[C@@H]2CSSC[C@H](NC(=O)[C@@H](N)Cc3c[nH]c4ccccc34)C(=O)N[C@@H](C(C)C)C(=O)N[C@@H](Cc3ccc(O)cc3)C(=O)N[C@@H](CO)C(=O)N3CCC[C@@H]3C(=O)N3CCC[C@H]3C(=O)N[C@@H](CC(C)C)C(=O)N[C@@H](CC(=O)O)C(=O)N[C@@H](Cc3ccc(O)cc3)C(=O)N2)[C@@H](C)O)CCNC(=O)[C@H]([C@@H](C)O)NC(=O)[C@H](CCN)NC(=O)[C@H](CCN)NC1=O [Ex. 151] (H-WCVYS[dP]PLDYC[Orn]T[Dab][Dab][Dab][Dab][dL]L[Dab][Dab]T; disulfide 2-11; lactam 16-C) | <1 | 2 | 1 | 8 | 0.25 | 0.5 | 0.5 | 1 |
| CC(C)C[C@@H]1NC(=O)[C@@H](CC(C)C)NC(=O)[C@H](CCN)NC(=O)[C@@H](NC(=O)[C@H](CCN)NC(=O)[C@@H](NC(=O)[C@H](CCN)NC(=O)CN(C)C(=O)[C@@H]2CSSC[C@H](NC(=O)[C@@H](N)Cc3c[nH]c4ccccc34)C(=O)N[C@@H](C(C)C)C(=O)N[C@@H](CCCNC(=N)N)C(=O)N[C@@H](CCCNC(=N)N)C(=O)N3CCC[C@@H]3C(=O)N3CCC[C@H]3C(=O)N[C@@H](CC(C)C)C(=O)N[C@@H](CO)C(=O)N[C@@H](Cc3ccc(O)cc3)C(=O)N2)[C@@H](C)O)CCNC(=O)[C@H]([C@@H](C)O)NC(=O)[C@H](CCN)NC(=O)[C@H](CCN)NC1=O [Ex. 152] (H-WCVRR[dP]PLSYC[Sar][Dab]T[Dab][Dab][Dab][dL]L[Dab][Dab]T; disulfide 2-11; lactam 16-C) | 1 | 2 | 0.25 | 8 | 0.25 | 0.125 | 2 | 0.25 |
| CC(C)C[C@@H]1NC(=O)[C@H](CO)NC(=O)[C@H](Cc2ccc(O)cc2)NC(=O)[C@@H]2CCCN2C(=O)[C@H]2CCCN2C(=O)[C@H](Cc2ccc(O)cc2)NC(=O)[C@H](C)NC(=O)[C@H](C(C)C)NC(=O)[C@@H](NC(=O)[C@@H](N)Cc2c[nH]c3ccccc23)CSSC[C@@H](C(=O)NCC(=O)N[C@@H](CCN)C(=O)N[C@H](C(=O)N[C@@H](CCN)C(=O)N[C@H]2CCNC(=O)[C@H]([C@@H](C)O)NC(=O)[C@H](CCN)NC(=O)[C@H](CCN)NC(=O)[C@H](CC(C)C)NC(=O)[C@@H](CC(C)C)NC(=O)[C@H](CCN)NC2=O)[C@@H](C)O)NC1=O [Ex. 153] (H-WCVAY[dP]PYSLCG[Dab]T[Dab][Dab][Dab][dL]L[Dab][Dab]T; disulfide 2-11; lactam 16-C) | <1 | 0.125 | 0.125 | 0.0625 | 0.0625 | 0.03125 | 0.5 | 0.0625 |
| CC(C)C[C@@H]1NC(=O)[C@H](CO)NC(=O)[C@H](CC(C)C)NC(=O)[C@@H]2CCCN2C(=O)[C@H]2CCCN2C(=O)[C@H]([C@@H](C)O)NC(=O)[C@H](C)NC(=O)[C@H](C(C)C)NC(=O)[C@@H](NC(=O)[C@@H](N)CC(C)C)CSSC[C@@H](C(=O)NCC(=O)N[C@@H](CCN)C(=O)N[C@H](C(=O)N[C@@H](CCN)C(=O)N[C@H]2CCNC(=O)[C@H]([C@@H](C)O)NC(=O)[C@H](CCN)NC(=O)[C@H](CCN)NC(=O)[C@H](CC(C)C)NC(=O)[C@@H](CC(C)C)NC(=O)[C@H](CCN)NC2=O)[C@@H](C)O)NC1=O [Ex. 154] (H-LCVAT[dP]PLSLCG[Dab]T[Dab][Dab][Dab][dL]L[Dab][Dab]T; disulfide 2-11; lactam 16-C) | <1 | 0.125 | 0.0625 | 0.25 | 0.0625 | 0.03125 | 1 | 0.0625 |
| CC(C)C[C@@H]1NC(=O)[C@H](CO)NC(=O)[C@H](Cc2ccc(O)cc2)NC(=O)[C@@H]2CCCN2C(=O)[C@H]2CCCN2C(=O)[C@H](C(C)C)NC(=O)[C@H](C)NC(=O)[C@H](C(C)C)NC(=O)[C@@H](NC(=O)[C@@H](N)C(C)C)CSSC[C@@H](C(=O)NCC(=O)N[C@@H](CCN)C(=O)N[C@H](C(=O)N[C@@H](CCN)C(=O)N[C@H]2CCNC(=O)[C@H]([C@@H](C)O)NC(=O)[C@H](CCN)NC(=O)[C@H](CCN)NC(=O)[C@H](CC(C)C)NC(=O)[C@@H](CC(C)C)NC(=O)[C@H](CCN)NC2=O)[C@@H](C)O)NC1=O [Ex. 155] (H-VCVAV[dP]PYSLCG[Dab]T[Dab][Dab][Dab][dL]L[Dab][Dab]T; disulfide 2-11; lactam 16-C) | <1 | 0.25 | 0.03125 | 0.5 | 0.0625 | 0.0625 | 1 | 0.0625 |
| CC(C)C[C@@H]1NC(=O)[C@H](CO)NC(=O)[C@H](Cc2ccc(O)cc2)NC(=O)[C@@H]2CCCN2C(=O)[C@H]2CCCN2C(=O)[C@H](Cc2c[nH]cn2)NC(=O)[C@H](C)NC(=O)[C@H](C(C)C)NC(=O)[C@@H](NC(=O)[C@@H](N)CC(C)C)CSSC[C@@H](C(=O)NCC(=O)N[C@@H](CCN)C(=O)N[C@H](C(=O)N[C@@H](CCN)C(=O)N[C@H]2CCNC(=O)[C@H]([C@@H](C)O)NC(=O)[C@H](CCN)NC(=O)[C@H](CCN)NC(=O)[C@H](CC(C)C)NC(=O)[C@@H](CC(C)C)NC(=O)[C@H](CCN)NC2=O)[C@@H](C)O)NC1=O [Ex. 156] (H-LCVAH[dP]PYSLCG[Dab]T[Dab][Dab][Dab][dL]L[Dab][Dab]T; disulfide 2-11; lactam 16-C) | <1 | 1 | 0.125 | 0.5 | 0.125 | 0.0625 | 0.25 | 0.125 |
